Assay results reported in ChEMBL document CHEMBL1201862, “PubChem BioAssay data set” (2004).
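Interpolation was linear, between the two tested concentrations surrounding the appropriate level; five concentrations were tested over 48 hours in 96-well plates. Abbreviation: GI50, concentration required for 50% inhibition of growth.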 Calls of active or inactive are those of the source. Rule as the data show it: active = GI50 up to about 1.1 µM and inactive = higher.

Tests used:
Test in all cases: inhibition of tumour cell growth, NCI panel, 48 h
[1] = tested on: TK-10
[2] = tested on: HL-60
[3] = tested on: NCI-H522
[4] = tested on: NCI-H460
[5] = tested on: UACC-62
[6] = tested on: BT-549
[7] = tested on: SF-539
[8] = tested on: SF-295
[9] = tested on: HCT-116
[10] = tested on: SF-268
[11] = tested on: RPMI-8226
[12] = tested on: UACC-257
[13] = tested on: HT-29
[14] = tested on: MCF7
[15] = tested on: HCC 2998
[16] = tested on: A549
[17] = tested on: Malme-3M
[18] = tested on: CCRF-CEM
[19] = tested on: RXF 393
[20] = tested on: SNB-19
[21] = tested on: HOP-62
[22] = tested on: CAKI-1
[23] = tested on: DU-145
[24] = tested on: SN12C
[25] = tested on: MOLT-4
[26] = tested on: OVCAR-5
[27] = tested on: MDA-N
[28] = tested on: SK-MEL-28
[29] = tested on: A498
[30] = tested on: K562
[31] = tested on: SR
[32] = tested on: KM12
[33] = tested on: OVCAR-4
[34] = tested on: PC-3
[35] = tested on: IGROV-1
[36] = tested on: ACHN
[37] = tested on: 786-0
[38] = tested on: Hs-578T
[39] = tested on: EKVX
[40] = tested on: NCI-H23
[41] = tested on: SW-620
[42] = tested on: NCI/ADR-RES
[43] = tested on: HOP-92
[44] = tested on: MDA-MB-435
[45] = tested on: SK-MEL-5
[46] = tested on: SNB-75
[47] = tested on: SK-MEL-2
[48] = tested on: OVCAR-8
[49] = tested on: OVCAR-3
[50] = tested on: M14
[51] = tested on: LOX IMVI
[52] = tested on: U-251
[53] = tested on: T47D
[54] = tested on: COLO 205
[55] = tested on: HCT-15
[56] = tested on: UO-31
[57] = tested on: SK-OV-3
[58] = tested on: NCI-H226
[59] = tested on: MDA-MB-231

## CC(=O)Oc1ccc2c(c1)CC[C@@H]1C2[C@@H](O[N+](=O)[O-])C[C@@]2(C)C1CC[C@@H]2O[N+](=O)[O-] (some centres not stated)
[1]
  GI50: 19.8 µM (inactive)
[2]
  GI50: 16.4 µM (inactive)
[3]
  GI50: 11.1 µM (inactive)
[4]
  GI50: 12.8 µM (inactive)
[5]
  GI50: 13.9 µM (inactive)
[6]
  GI50: 17.6 µM (inactive)
[7]
  GI50: 18.2 µM (inactive)
[8]
  GI50: 10.7 µM (inactive)
[9]
  GI50: 10.2 µM (inactive)
[10]
  GI50: 13.3 µM (inactive)
[11]
  GI50: 7.41 µM (inactive)
[12]
  GI50: 11.1 µM (inactive)
[13]
  GI50: 16.4 µM (inactive)
[14]
  GI50: 9.42 µM (inactive)
[15]
  GI50: 1.63 µM (inactive)
[16]
  GI50: 13.2 µM (inactive)
[17]
  GI50: 13.7 µM (inactive)
[18]
  GI50: 9.1 µM (inactive)
[19]
  GI50: 11.5 µM (inactive)
[20]
  GI50: 16.9 µM (inactive)
[21]
  GI50: 6.82 µM (inactive)
[22]
  GI50: 19.3 µM (inactive)
[23]
  GI50: 14.2 µM (inactive)
[24]
  GI50: 15.5 µM (inactive)
[25]
  GI50: 10.4 µM (inactive)
[26]
  GI50: 19.4 µM (inactive)
[27]
  GI50: 14.3 µM (inactive)
[28]
  GI50: 14.5 µM (inactive)
[29]
  GI50: 18.6 µM (inactive)
[30]
  GI50: 6.5 µM (inactive)
[31]
  GI50: 5.31 µM (inactive)
[32]
  GI50: 14.1 µM (inactive)
[33]
  GI50: 16.3 µM (inactive)
[34]
  GI50: 10.5 µM (inactive)
[35]
  GI50: 15.1 µM (inactive)
[36]
  GI50: 8.69 µM (inactive)
[37]
  GI50: 14.5 µM (inactive)
[38]
  GI50: 19.1 µM (inactive)
[39]
  GI50: 12.3 µM (inactive)
[40]
  GI50: 12.7 µM (inactive)
[41]
  GI50: 16.1 µM (inactive)
[42]
  GI50: 14.3 µM (inactive)
[43]
  GI50: 10.1 µM (inactive)
[44]
  GI50: 15.5 µM (inactive)
[45]
  GI50: 9.75 µM (inactive)
[46]
  GI50: 13.5 µM (inactive)
[47]
  GI50: 15.4 µM (inactive)
[48]
  GI50: 14.6 µM (inactive)
[49]
  GI50: 13.2 µM (inactive)
[50]
  GI50: 14 µM (inactive)
[51]
  GI50: 13.7 µM (inactive)
[52]
  GI50: 14 µM (inactive)
[53]
  GI50: 6.97 µM (inactive)
[54]
  GI50: 16.8 µM (inactive)
[55]
  GI50: 13.3 µM
[56]
  GI50: 12.3 µM (inactive)

## CC(C)(C)OC(=O)N(CCCCNC(=O)c1ccccc1)CCCNC(=O)c1ccccc1
[1]
  GI50: > 100 µM (inactive)
[2]
  GI50: 31.4 µM (inactive)
[3]
  GI50: > 100 µM (inactive)
[4]
  GI50: > 100 µM (inactive)
[5]
  GI50: > 100 µM (inactive)
[6]
  GI50: > 100 µM (inactive)
[7]
  GI50: > 100 µM (inactive)
[8]
  GI50: > 100 µM (inactive)
[9]
  GI50: > 100 µM (inactive)
[10]
  GI50: > 100 µM (inactive)
[11]
  GI50: > 100 µM (inactive)
[12]
  GI50: > 100 µM (inactive)
[13]
  GI50: > 100 µM (inactive)
[14]
  GI50: > 100 µM (inactive)
[15]
  GI50: > 100 µM (inactive)
[16]
  GI50: > 100 µM (inactive)
[18]
  GI50: 72.1 µM (inactive)
[19]
  GI50: > 100 µM (inactive)
[20]
  GI50: > 100 µM (inactive)
[21]
  GI50: > 100 µM (inactive)
[22]
  GI50: > 100 µM (inactive)
[23]
  GI50: > 100 µM (inactive)
[24]
  GI50: > 100 µM (inactive)
[25]
  GI50: 46.8 µM (inactive)
[26]
  GI50: > 100 µM (inactive)
[28]
  GI50: > 100 µM (inactive)
[29]
  GI50: > 100 µM (inactive)
[30]
  GI50: > 100 µM (inactive)
[31]
  GI50: 49.3 µM (inactive)
[32]
  GI50: > 100 µM (inactive)
[33]
  GI50: > 100 µM (inactive)
[34]
  GI50: 98.6 µM (inactive)
[35]
  GI50: > 100 µM (inactive)
[57]
  GI50: > 100 µM (inactive)
[36]
  GI50: > 100 µM (inactive)
[37]
  GI50: > 100 µM (inactive)
[38]
  GI50: > 100 µM (inactive)
[58]
  GI50: > 100 µM (inactive)
[39]
  GI50: > 100 µM (inactive)
[40]
  GI50: > 100 µM (inactive)
[41]
  GI50: > 100 µM (inactive)
[42]
  GI50: 68.1 µM (inactive)
[43]
  GI50: > 100 µM (inactive)
[44]
  GI50: > 100 µM (inactive)
[45]
  GI50: > 100 µM (inactive)
[46]
  GI50: > 100 µM (inactive)
[47]
  GI50: > 100 µM (inactive)
[48]
  GI50: > 100 µM (inactive)
[49]
  GI50: > 100 µM (inactive)
[50]
  GI50: > 100 µM (inactive)
[52]
  GI50: > 100 µM (inactive)
[53]
  GI50: 74.3 µM (inactive)
[54]
  GI50: > 100 µM (inactive)
[55]
  GI50: > 100 µM
[56]
  GI50: 90.6 µM (inactive)
[59]
  GI50: > 100 µM (inactive)
